Test systems include Escherichia coli BL21; Escherichia coli JW0013; Bacillus subtilis; Pseudomonas aeruginosa; Proteus vulgaris; Escherichia coli; Streptococcus pyogenes; Salmonella typhimurium.
Common to all, as to assay: ≥ marks a high value that may be exact or a test limit, other limits are often not marked, values filed in µg/mL are converted to µM
Assay [1] relates to Streptococcus pyogenes M1T1 5448.
Assay [2] relates to Pseudomonas aeruginosa PAO1.
In assay [3] the test system is Staphylococcus aureus USA 300.
For assay [4], the system named is Staphylococcus aureus USA 100.
Assay [5] deals with Pseudomonas aeruginosa ATCC 9027.
The test system of assay [6] is Candida albicans ATCC 90028.
Assay [7] concerns Staphylococcus epidermidis.
In assay [8] the test system is Pectobacterium carotovorum.

A word on the MIC: it is the smallest concentration in the dilution series that meets the test's criterion for growth inhibition. Low values mean inhibition by little substance, high ones a need for much substance.

Structures are written as SMILES. ≈ marks a conversion by molar mass, not a printed value.

In the case of `CC[C@H](C)[C@H](NC(=O)[C@H](CO)NC(=O)[C@H](CCC(=O)O)NC(=O)[C@H](CCCN=C(N)N)NC(=O)CNC(=O)[C@H](C)N)C(=O)N[C@@H](CCCCN)C(=O)N[C@@H](C)C(=O)N[C@@H](Cc1ccc(O)cc1)C(=O)N[C@@H](CC(C)C)C(=O)N[C@@H](CCCCN)C(=O)N[C@@H](CCCCN)C(=O)N[C@@H](CCC(=O)O)C(=O)N[C@H](C(=O)N[C@@H](CCCCN)C(=O)N[C@@H](CCCCN)C(=O)N[C@@H](CCCCN)C(=O)N[C@@H](Cc1c[nH]c2ccccc12)C(=O)N[C@@H](CCCCN)C(=O)N[C@@H](CCCN=C(N)N)C(=O)N[C@@H](C)C(=O)N[C@H](C(=O)N[C@H](C(=O)N[C@@H](C)C(=O)N[C@@H](Cc1c[nH]c2ccccc12)C(=O)O)[C@@H](C)CC)C(C)C)[C@@H](C)CC` [AGRESIKAYLKKEIKKKWKRAVIAW], the MIC in [1] was 16 µM (≈ 48 µg/mL); in the assay with Escherichia coli BL21, 4 µM (≈ 12 µg/mL); in assay [2] it was 16 µM (≈ 48 µg/mL); in assay [3], ≥ 128 µM.

`CC[C@H](C)[C@H](NC(=O)[C@H](Cc1ccccc1)NC(=O)[C@H](C)NC(=O)[C@H](CCCCN)NC(=O)[C@H](CCCCN)NC(=O)CNC(=O)[C@H](CCCN=C(N)N)NC(=O)[C@H](CCCCN)NC(=O)[C@H](CCCN=C(N)N)NC(=O)[C@H](CC(C)C)NC(=O)[C@H](CCC(=O)O)NC(=O)[C@H](CCC(=O)O)NC(=O)[C@H](CCCCN)NC(=O)[C@H](CC(C)C)NC(=O)[C@H](Cc1ccc(O)cc1)NC(=O)[C@H](CC(C)C)NC(=O)[C@@H](NC(=O)[C@H](CC(C)C)NC(=O)[C@H](C)NC(=O)[C@H](CCC(N)=O)NC(=O)[C@H](CCCN=C(N)N)NC(=O)CNC(=O)[C@H](C)N)[C@@H](C)O)C(=O)N[C@@H](C)C(=O)N[C@@H](Cc1c[nH]c2ccccc12)C(=O)O` [AGRQALTLYLKEELRKRGKKAFIAW]: the results for the MIC (in assay [1]; against Escherichia coli BL21; in assay [2]) were 16 µM (≈ 47.2 µg/mL), ≥ 32 µM and > 128 µM, respectively.

Regarding `CC(C)C[C@H](NC(=O)[C@H](CCCN=C(N)N)NC(=O)[C@@H]1CCCN1C(=O)[C@H](Cc1cnc[nH]1)NC(=O)[C@@H]1CCCN1C(=O)[C@@H]1CCCN1C(=O)[C@H](CCCN=C(N)N)NC(=O)[C@@H]1CCCN1C(=O)[C@H](CCC(N)=O)NC(=O)[C@@H]1CCCN1C(=O)[C@H](CCCN=C(N)N)NC(=O)[C@H](Cc1ccc(O)cc1)NC(=O)[C@@H](NC(=O)[C@@H]1CCCN1C(=O)[C@H](CCCN=C(N)N)NC(=O)[C@H](CC(N)=O)NC(=O)[C@H](CC(N)=O)NC(=O)CN)C(C)C)C(=O)O` [GNNRPVYRPQPRPPHPRL], in the assay on Escherichia coli JW0013, the MIC stood at 0.3 µM (≈ 0.645 µg/mL).

Take `NC(=O)C[C@H](NC(=O)[C@H](Cc1ccccc1)NC(=O)[C@@H](N)Cc1c[nH]c2ccccc12)C(=O)O` [WFN]: the minimum inhibitory concentration (MIC) was ≥ 100 µM in assay [4], > 100 µM in assay [5], ≥ 100 µM in [6] and ≥ 100 µM in [3].

In the case of `CC(C)C[C@H](NC(=O)[C@H](CCCN=C(N)N)NC(=O)[C@@H]1CCCN1C(=O)[C@H](Cc1cnc[nH]1)NC(=O)[C@@H]1CCCN1C(=O)[C@@H]1CCCN1C(=O)[C@H](CCCN=C(N)N)NC(=O)[C@@H]1CCCN1C(=O)[C@H](CCC(N)=O)NC(=O)[C@@H]1CCCN1)C(=O)O` [PQPRPPHPRL], the minimal inhibitory concentration (MIC) was ≥ 64 µM against Bacillus subtilis; 64 µM (≈ 76.4 µg/mL) with Pseudomonas aeruginosa; ≥ 64 µM against Proteus vulgaris; 64 µM (≈ 76.4 µg/mL) against Escherichia coli; ≥ 64 µM in [7]; ≥ 64 µM with Streptococcus pyogenes. The minimum inhibitory concentration (MIC) in the assay on Salmonella typhimurium came to 16 µM (≈ 19.1 µg/mL).

For the molecule `CC[C@H](C)[C@H](NC(=O)[C@H](CCCCN)NC(=O)[C@H](CCCCN)NC(=O)[C@H](CCCCN)NC(=O)[C@H](CC(C)C)NC(=O)[C@H](Cc1ccccc1)NC(=O)[C@H](CCC(N)=O)NC(=O)[C@H](CCCN=C(N)N)NC(=O)[C@@H](NC(=O)[C@@H](NC(=O)[C@H](CCC(=O)O)NC(=O)[C@H](CCCCN)NC(=O)CNC(=O)[C@H](C)N)[C@@H](C)O)[C@@H](C)CC)C(=O)N[C@@H](CCC(N)=O)C(=O)N[C@@H](CCC(=O)O)C(=O)N[C@@H](CCCCN)C(=O)NCC(=O)N[C@@H](CCCCN)C(=O)N[C@@H](CCCN=C(N)N)C(=O)N[C@@H](C)C(=O)N[C@H](C(=O)N[C@H](C(=O)N[C@@H](C)C(=O)N[C@@H](Cc1c[nH]c2ccccc12)C(=O)O)[C@@H](C)CC)[C@@H](C)O` [AGKETIRQFLKKKIQEKGKRATIAW], the figures for the MIC (in assay [1]; with Escherichia coli BL21; in assay [2]) were 8 µM (≈ 23.4 µg/mL), ≥ 32 µM and > 128 µM, respectively.

The molecule `CC(C)C[C@H](NC(=O)[C@H](Cc1ccccc1)NC(=O)CNC(=O)[C@H](C)NC(=O)[C@H](Cc1ccccc1)NC(=O)[C@@H](NC(=O)[C@H](CCCN=C(N)N)NC(=O)[C@H](CC(=O)O)NC(=O)[C@H](CCCCN)NC(=O)[C@H](CCC(=O)O)NC(=O)[C@@H](N)CCC(N)=O)[C@@H](C)O)C(=O)N[C@@H](CC(C)C)C(=O)N[C@@H](CCCCN)C(=O)NCC(=O)N[C@@H](Cc1ccccc1)C(=O)NCC(=O)N[C@H](C(=O)N[C@@H](CO)C(=O)N[C@@H](C)C(=O)N[C@@H](CO)C(=O)O)[C@@H](C)O` [QEKDRTFAGFLLKGFGTSAS] gave a minimal inhibitory concentration (MIC) in assay [8] of 1.34 µM.

Take `CC[C@H](C)[C@H](NC(=O)[C@H](CCCCN)NC(=O)[C@H](CCCCN)NC(=O)CNC(=O)[C@H](CCC(=O)O)NC(=O)[C@H](CCC(N)=O)NC(=O)[C@@H](NC(=O)[C@@H](NC(=O)[C@H](CCCCN)NC(=O)[C@H](CCCCN)NC(=O)[C@H](CC(C)C)NC(=O)[C@H](CCCN=C(N)N)NC(=O)[C@H](CCC(N)=O)NC(=O)[C@H](Cc1ccccc1)NC(=O)[C@@H](NC(=O)[C@H](CCCCN)NC(=O)[C@H](CCC(=O)O)NC(=O)[C@H](CCCCN)NC(=O)CNC(=O)[C@H](C)N)[C@@H](C)CC)[C@@H](C)O)[C@@H](C)CC)C(=O)N[C@@H](C)C(=O)N[C@@H](CCCCN)C(=O)N[C@@H](CCCN=C(N)N)C(=O)N[C@@H](C)C(=O)N[C@@H](Cc1c[nH]c2ccccc12)C(=O)O` [AGKEKIFQRLKKTIQEGKKIAKRAW]: the minimum inhibitory concentration (MIC) in [1] was ≥ 128 µM; in the assay on Escherichia coli BL21, 16 µM (≈ 47.3 µg/mL); in assay [2], 64 µM (≈ 189 µg/mL); in assay [3], 4 µM (≈ 11.8 µg/mL).

In the case of `CC[C@H](C)[C@H](NC(=O)[C@H](CCCN=C(N)N)NC(=O)[C@H](CCCN=C(N)N)NC(=O)[C@@H]1CCCN1C(=O)[C@@H]1CCCN1C(=O)[C@H](CCCN=C(N)N)NC(=O)[C@@H]1CCCN1C(=O)[C@H](CCCN=C(N)N)NC(=O)[C@@H]1CCCN1C(=O)[C@H](CC(C)C)NC(=O)[C@H](Cc1ccc(O)cc1)NC(=O)[C@@H]1CCCN1C(=O)[C@H](CCSC)NC(=O)[C@H](CCCCN)NC(=O)[C@H](CC(=O)O)NC(=O)[C@@H](N)C(C)C)C(=O)N[C@@H](Cc1ccc(O)cc1)C(=O)N[C@@H](CC(N)=O)C(=O)N[C@@H](CCCN=C(N)N)C(N)=O` [VDKMPYLPRPRPPRRIYNR], in the assay with Escherichia coli JW0013, the minimum inhibitory concentration (MIC) amounted to 1.28 µM (≈ 3.1 µg/mL).
